Test results as given in patent EP2974714B1, “USE OF DERIVATIVES WITH C-O-P BONDS IN PATIENTS WITH RENAL FAILURE” (LABORATORIS SANIFIT, S.L., priority 2013, dated 2014).

How the values were obtained:
[1] = In vitro binding kinetics of IP6 to HAP; conditions: 130 mg HAP
Description: Experimental: 130 mg HAP was incubated (in triplicate) with 7.6 µM IP6, at 37°C, pH 7.4, for different time intervals while stirring continuously.

[2] = system: vitamin D-induced cardiovascular calcification in rats; test: Inhibition of vit D-induced (75,000 IU/kg x 5) cardiovascular calcification by intravenous IP6; assay type: in vivo, male Sprague Dawley (SD) rats
Description: Experimental: male Sprague Dawley (SD) rats were divided into 7 groups and IP6 was administered intravenously daily for 14 days at a dose of 0, 0.05, 0.1, 0.5, 1, 5 and 10 mg/kg. Calcification was induced by oral administration of 75,000 IU/kg vitamin D on treatment days 3 to 7. Samples were collected. On day 14 the aortas and hearts of the animals were collected to quantify calcification.

[3] = system: tissue calcification in a chronic renal impairment model (5/6 nephrectomised rats); test: 5/6 nephrectomy model, IP6 by i.v. bolus; assay type: in vivo, SD rats; conditions: i.v. bolus 1 or 5 mg/kg, 8 weeks
Description: Experimental: 48 SD rats were 5/6 nephrectomised by complete right lateral nephrectomy and 2/3 partial nephrectomy of the left kidney. 16 animals per group were treated intravenously (bolus) with 2 ml/kg saline, 1 mg/kg IP6 or 5 mg/kg IP6. The animals received a phosphate-rich diet (1% Ca, 1.2% P) containing 20% lactose. After 8 weeks the aorta, heart and remaining 1/3 kidney were collected, and the tissue calcium content determined.

[4] = system: tissue calcification in an animal model of chronic renal impairment (adenine); test: Adenine model, bolus-type s.c. administration; assay type: in vivo, male Wistar rats; conditions: s.c. bolus 3, 10 and 30 mg/kg, 28 days, adenine uraemic rats
Description: Experimental: CKD was induced in 4 groups (n=12) of male Wistar rats by oral (p.o.) treatment with adenine (600 mg/kg/day) daily for 10 days. After treatment with adenine, the rats received alpha-calcidol at a dose of 300 ng/kg (3x/week, p.o.) until day 28. From day 0 until sacrifice (day 28), the animals were treated with a 2 ml/kg s.c. bolus of 0, 3, 10 and 30 mg/kg IP6. At each treatment, 3 additional animals were included to evaluate the […] for IP6. After 28 days the aorta, heart and right kidney were collected, and the tissue calcium content determined.

[5] = Calcium chelation by IP6 in vitro (calcium-selective electrode); assay type: physicochemical; conditions: 2.5 mM calcium in NaCl 0.15 M, pH 7.40
Description: Experimental: a 2.5 mM of calcium in NaCl 0.15 M, pH 7.40, was pipetted with increasing concentrations of IP6. The amount of free ionic calcium was measured potentiometrically using a calcium-selective electrode and a potentiometer.

cardiovascular function = test: Cardiovascular function after 2 h intravascular infusion in conscious dogs by telemetry; assay type: in vivo; conditions: for peak IP6 levels: dogs
Description: Experimental: 4 male dogs were treated with 3, 10 and 30 mg/kg IP6 by infusion for 2 h in a Latin square design. A washout period of one week was performed between doses. ECGs were measured telemetrically at 1 h and 20 minutes prior to infusion and 5, 15, 30, 45 minutes, 1, 2, 6 and 24 h post-infusion. In a second stage, blood samples were taken for PK, for the same doses, at 20 minutes prior to infusion and 5, 15, 30 minutes and 1, 1.5, 2, 3 and 6 h post-infusion. In this case the washout period between doses was 2 days. Total and free calcium in the blood samples was also measured.

[6] = i.v. dose of between 1 and 10 mg/kg daily for 14 days

For `O=P(O)(O)O[C@H]1[C@H](OP(=O)(O)O)[C@@H](OP(=O)(O)O)[C@H](OP(=O)(O)O)[C@@H](OP(=O)(O)O)[C@H]1OP(=O)(O)O` [IP6, inositol hexaphosphate], the “time at which adsorption maximum is reached” value ([1]; 7.6 µM IP6, 37°C, pH 7.4) was 60 min, the “share of maximum binding achieved” value ([1]; after 5 minutes, 7.6 µM IP6) was “Around 80%” and the “effect on the mineral content of the aorta and heart” value ([2]; i.v. 0.05 to 0.5 mg/kg daily for 14 days) was “did not affect”. For the same compound, the “reduction of calcification in aorta” value [2, 6] was “up to 60%”, the “reduction of calcification in heart” value [2, 6] was no more than 68% and the “calcification inhibition (aorta, heart, remaining kidney)” value [3] was “no evidence of calcification inhibition”. The “calcification inhibition (aorta, heart, right kidney)” value [4] was “no evidence of calcification inhibition”, the “IP6 concentration above which ionic calcium chelation is significant” value [5] was “above 379 µM” and the “IP6 concentration at which chelation saturates” value [5] was 3788 µM. The EC50 ([5]; read-out: EC50 of ionic calcium chelation) was 539 µM, the “peak IP6 levels” value (cardiovascular function; 3 mg/kg infusion for 2 h) was 27 µM and the “peak IP6 levels” value (cardiovascular function; 10 mg/kg infusion for 2 h) was 150 µM. The “peak IP6 levels” value (cardiovascular function; 30 mg/kg infusion for 2 h) was 482 µM, the “mean blood ionic calcium concentrations” value (cardiovascular function; infusion for 2 h, 3, 10 and 30 mg/kg) was “unaffected” and the “state of health, weight, cardiorespiratory function, ECG, body temperature and total and free potassium in blood” value (cardiovascular function; infusion for 2 h, 3, 10 and 30 mg/kg (any dose)) was “relatively unaffected”.
